The target of the first assay is T1, JNK1 (Homo sapiens, UniProt P45983).
T1 construct: purchased Carna Biosciences
T1 sequence (P45983 whole entry): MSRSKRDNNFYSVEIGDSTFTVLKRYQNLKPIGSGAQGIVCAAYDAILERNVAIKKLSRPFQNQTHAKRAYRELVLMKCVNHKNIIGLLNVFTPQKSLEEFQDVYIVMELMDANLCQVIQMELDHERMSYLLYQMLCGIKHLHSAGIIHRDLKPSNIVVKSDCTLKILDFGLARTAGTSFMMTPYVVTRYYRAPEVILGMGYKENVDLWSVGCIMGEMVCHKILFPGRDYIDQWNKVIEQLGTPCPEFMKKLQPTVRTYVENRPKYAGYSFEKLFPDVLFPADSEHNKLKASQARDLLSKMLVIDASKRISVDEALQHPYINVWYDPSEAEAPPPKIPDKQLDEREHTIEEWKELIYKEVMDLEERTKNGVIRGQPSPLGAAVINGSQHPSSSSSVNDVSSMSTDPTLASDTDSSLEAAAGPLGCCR
Nature of the assay: JNK1 biochemical assays (one or more of: time resolved fluorescence, Z'-LYTE Cascade, radioactive). The conditions noted are these: Table 2; JNK1 IC50 activity level; read-out: Act. Level.
With `CC1(C)OCC(CNc2ncc(C(N)=O)c(Nc3ccccc3)n2)O1` (stereo not shown) [Example B-58, 2-((2,2-dimethyl-1,3-dioxolan-4-yl)methylamino)-4-(phenylamino)pyrimidine-5-carboxamide], the IC50 lay within 200 to 800 nM.

As for `CCOC(=O)N1CCC(Nc2ncc(C(N)=O)c(Nc3ccccc3)n2)CC1` [Example B-48, ethyl 4-(5-carbamoyl-4-(phenylamino)pyrimidin-2-ylamino)piperidine-1-carboxylate], the IC50 is under 200 nM.

As for `NC(=O)c1cnc(NCc2ccccc2)nc1Nc1ccccc1` [Example B-73, 2-(benzylamino)-4-(phenylamino)pyrimidine-5-carboxamide], the IC50 was 800 to 1000 nM.

As for `CCC(C)Nc1ncc(C(N)=O)c(Nc2ccccc2)n1` (stereo not shown) [Example B-46, 2-(sec-butylamino)-4-(phenylamino)pyrimidine-5-carboxamide], the IC50 is under 200 nM.

The assay is the same for the next values; noted with them: Table 3; JNK1 IC50 activity level; read-out: Act. Level.
As for `CC(=O)N[C@H]1CC[C@H](Nc2ncc(C#N)c(N[C@@H]3CCC[C@H](O)C3)n2)CC1` [Example C-13, N-((1R,4r)-4-(5-cyano-4-((1R,3S)-3-hydroxycyclohexylamino)pyrimidin-2-ylamino)cyclohexyl)acetamide], the IC50 was under 200 nM.

Regarding `CN(C)C(=O)C(C)(C)C1CCC(Nc2ncc(C#N)c(N[C@@H]3CCC[C@H](O)C3)n2)CC1` (stereo partly drawn) [Example C-35, 2-(4-(5-cyano-4-((1R,3S)-3-hydroxycyclohexylamino)pyrimidin-2-ylamino)cyclohexyl)-N,N,2-trimethylpropanamide], the IC50 was in the range of 200 to 800 nM.

On to `CO[C@H]1CC[C@H](Nc2ncc(C#N)c(N[C@H]3CCCC[C@](C)(O)C3)n2)CC1` [Example C-51, 4-((1S,3S)-3-hydroxy-3-methylcycloheptylamino)-2-((1r,4S)-4-methoxycyclohexylamino) pyrimidine-5-carbonitrile], for which the IC50 lay in the range of 1000 to 10000 nM.

`CN[C@H]1CC[C@H](Nc2ncc(C#N)c(N[C@@H]3CCC[C@H](O)C3)n2)CC1` [Example C-11, 4-((1R,3S)-3-hydroxycyclohexylamino)-2-((1r,4R)-4-(methylamino)cyclohexylamino) pyrimidine-5-carbonitrile]: the IC50 was under 200 nM.

The assay is the same for the next values; noted with them: one or more of the JNK1 biochemical assays; read-out: Act. Level (JNK1 IC50 activity level).
In the case of `NC(=O)c1cnc(N[C@H]2CC[C@H](OCC(F)(F)F)CC2)nc1N[C@@H]1CCC[C@@H]1CO` [Example 266, 4-((1R,2S)-2-(hydroxymethyl)cyclopentylamino)-2-((1r,4R)-4-(2,2,2-trifluoroethoxy)cyclohexylamino)pyrimidine-5-carboxamide], the IC50 was under 200 nM.

In the case of `CC(C)(C)Nc1nc(N[C@@H]2CCCC[C@H](O)C2)ncc1C(N)=O` [Example 376, 4-(tert-butylamino)-2-((1R,3S)-3-hydroxycycloheptylamino)pyrimidine-5-carboxamide], the IC50 is under 200 nM.

For `CC1(C)CCC(Nc2nc(NC(C)(C)C)ncc2C(N)=O)C(O)C1` (stereo not shown) [Example 342, 2-(tert-butylamino)-4-(2-hydroxy-4,4-dimethylcyclohexylamino)pyrimidine-5-carboxamide], the IC50 lay in the range of 200 to 800 nM.

Turning to `CCO[C@H]1CC[C@H](Nc2ncc(C(N)=O)c(NC3(C)CCC3)n2)CC1` [Example 401, 2-((1r,4r)-4-ethoxycyclohexylamino)-4-(1-methylcyclobutylamino)pyrimidine-5-carboxamide], the IC50 was under 200 nM.

`CCO[C@H]1CC[C@H](Nc2ncc(C(N)=O)c(N[C@@H](C)C(C)C)n2)CC1` [Example 282, 2-((1r,4S)-4-ethoxycyclohexylamino)-4-((S)-3-methylbutan-2-ylamino)pyrimidine-5-carboxamide]: the IC50 is under 200 nM.

For the molecule `C[C@@H](Nc1nc(N[C@H]2CC[C@H](O)CC2)ncc1C(N)=O)C(C)(C)C` [Example 281, 4-((R)-3,3-dimethylbutan-2-ylamino)-2-((1r,4R)-4-hydroxycyclohexylamino)pyrimidine-5-carboxamide], the IC50 is under 200 nM.

`CCC(C)(C)Nc1nc(N[C@H]2CC[C@H](OC)CC2)ncc1C(N)=O` [Example 381, 2-((1r,4r)-4-methoxycyclohexylamino)-4-(tert-pentylamino)pyrimidine-5-carboxamide]: the IC50 is under 200 nM.

As for `C[C@@H]1CC[C@@H](Nc2nc(NC34CC(C)(C3)C4)ncc2C(N)=O)C[C@H]1O` [Example 396, 4-((1R,3R,4R)-3-hydroxy-4-methylcyclohexylamino)-2-(3-methylbicyclo[1.1.1]pentan-1-ylamino)pyrimidine-5-carboxamide], the IC50 was under 200 nM.

As for `NC(=O)c1cnc(N[C@H]2CCCOC2)nc1NC1CCC1` [Example 448, (S)-4-(cyclobutylamino)-2-(tetrahydro-2H-pyran-3-ylamino)pyrimidine-5-carboxamide], the IC50 was under 200 nM.

Turning to `NC(=O)c1cnc(N[C@H]2CC[C@H](O)CC2)nc1NC12CCC(C1)C2` [Example 477, 4-(bicyclo[2.1.1]hexan-1-ylamino)-2-((1r,4r)-4-hydroxycyclohexylamino)pyrimidine-5-carboxamide], the IC50 is under 200 nM.

Turning to `CCO[C@H]1CC[C@H](Nc2ncc(C(N)=O)c(NC34CCC(C3)C4)n2)CC1` [Example 462, 4-(bicyclo[2.1.1]hexan-1-ylamino)-2-((1r,4r)-4-ethoxycyclohexylamino)pyrimidine-5-carboxamide], the IC50 was under 200 nM.

With `CO[C@H]1CC[C@H](Nc2ncc(C(N)=O)c(N[C@@H](C)C(C)(C)C)n2)CC1` [Example 278, 4-((S)-3,3-dimethylbutan-2-ylamino)-2-((1r,4S)-4-methoxycyclohexylamino)pyrimidine-5-carboxamide], the IC50 was under 200 nM.

Regarding `CC(C)(Nc1nc(NC23CCC(O)(CC2)C3)ncc1C(N)=O)C1CC1` [Example 445, 4-(2-cyclopropylpropan-2-ylamino)-2-(4-hydroxybicyclo[2.2.1]heptan-1-ylamino)pyrimidine-5-carboxamide], the IC50 was under 200 nM.

As for `CC1(Nc2nc(NC34CCC(O)(CC3)C4)ncc2C(N)=O)CCC1` [Example 451, 2-(4-hydroxybicyclo[2.2.1]heptan-1-ylamino)-4-(1-methylcyclobutylamino)pyrimidine-5-carboxamide], the IC50 is under 200 nM.

The assay is the same for the next values; noted with them: tested in one or more of the JNK1 biochemical assays; read-out: Act. Level (JNK1 biochemical assay IC50 activity level).
With `CC[C@H](C)Nc1nc(N[C@H]2CC[C@H](O)CC2)ncc1C(N)=O` [Example A-195, 4-(sec-butylamino)-2-((1r,4S)-4-hydroxycyclohexylamino)pyrimidine-5-carboxamide], the IC50 is under 200 nM.

Turning to `NC(=O)c1cnc(NC2CCC(F)(F)CC2)nc1N[C@@H]1CCCC[C@H](O)C1` [Example A-192, 2-(4,4-difluorocyclohexylamino)-4-((1R,3S)-3-hydroxycycloheptylamino)pyrimidine-5-carboxamide], the IC50 was under 200 nM.

On to `CC(C)Nc1ncc(C(N)=O)c(N[C@H]2CC[C@@H](C(C)(C)O)CC2)n1` [Example A-140, 4-((1s,4s)-4-(2-hydroxypropan-2-yl)cyclohexylamino)-2-(isopropylamino)pyrimidine-5-carboxamide], for which the IC50 lay in the range of 200 to 800 nM.

As to `CCO[C@H]1CC[C@@H](Nc2nc(NC3CCOCC3)ncc2C(N)=O)CC1` [Example A-115, 4-((1s,4s)-4-ethoxycyclohexylamino)-2-(tetrahydro-2H-pyran-4-ylamino)pyrimidine-5-carboxamide], the IC50 is under 200 nM.

With `NC(=O)c1cnc(NC2CCOCC2)nc1N[C@@H]1CCC[C@H](O)C1` [Example A-57, 4-((1R,3S)-3-hydroxycyclohexylamino)-2-(tetrahydro-2H-pyran-4-ylamino)pyrimidine-5-carboxamide], the IC50 was under 200 nM.

Consider `CCO[C@H]1CC[C@@H](Nc2ncc(C(N)=O)c(N[C@H]3CCC[C@@H]3O)n2)CC1` [Example A-62, 2-((1s,4R)-4-ethoxycyclohexylamino)-4-((1S,2S)-2-hydroxycyclopentylamino)pyrimidine-5-carboxamide], for which the IC50 fell in the range of 800 to 1000 nM.

With `CO[C@H]1CC[C@H](Nc2ncc(C(N)=O)c(N[C@@H]3CCC[C@@H]3CO)n2)CC1` [Example A-36, 4-((1R,2S)-2-(hydroxymethyl)cyclopentylamino)-2-((1r,4R)-4-methoxycyclohexylamino)pyrimidine-5-carboxamide], the IC50 was under 200 nM.

With `CN(C)C(=O)[C@H]1CC[C@H](Nc2ncc(C(N)=O)c(N[C@@H]3CCC[C@H](O)C3)n2)CC1` [Example A-27, 2-((1r,4R)-4-(dimethylcarbamoyl)cyclohexylamino)-4-((1R,3S)-3-hydroxycyclohexylamino)pyrimidine-5-carboxamide], the IC50 is under 200 nM.

Take `NC(=O)c1cnc(N[C@H]2CC[C@H](OCC(F)(F)F)CC2)nc1N[C@@H]1CCCOC1` [Example A-188, 4-((R)-tetrahydro-2H-pyran-3-ylamino)-2-((1r,4R)-4-(2,2,2-trifluoroethoxy)cyclohexylamino)pyrimidine-5-carboxamide]: the IC50 was under 200 nM.

For the origin of these results see patent publication US12129237B2, “Substituted diaminocarboxamide and diaminocarbonitrile pyrimidines, compositions thereof, and methods of treatment therewith” (SIGNAL PHARMACEUTICALS, LLC, priority 2011, dated 2024).
